The values that follow come from patent US9988407B2, “Prodrugs of prostate specific membrane antigen (PSMA) inhibitor” (THE JOHNS HOPKINS UNIVERSITY, priority 2014, dated 2018).

Data set [1] is described as follows: In vivo pharmacokinetics in mice, peroral, bioanalysis method 2 (2-PMPA release). The following applies: rodents and dogs. As for the experimental part: Blood was obtained via cardiac puncture and tissue dissected at 0 min, 15 min, 30 min, 1 h, 2 h, and 4 h post dose (n=3 per time point). Single time point studies were conducted at 30 min (N=3) following dosing. Plasma was harvested from blood by centrifugation. Mean concentration-time data was used for pharmacokinetic (PK) analysis. Non-compartmental-analysis module in WinNonlin® (version 5.3) was used to assess pharmacokinetic parameters. Peak plasma concentrations (Cmax) and time to Cmax (Tmax) were the observed values. Area under the curve (AUC) was calculated by log-linear (p.o.) trapezoidal rule to the end of sample collection (AUClast) and extrapolated to infinity (AUC0-∞) by dividing the last quantifiable concentration by the terminal disposition rate constant (ke). […] The tissues were stored in −20° C. for 1 h and then homogenized. The calibration curve for the tissues was developed using naïve mouse brains from untreated animals as a matrix. For sciatic nerve, the nerves were weighed and homogenized in 50 μL methanol and the calibration curve was developed using naïve sciatic nerves from untreated animals as a matrix. The samples were vortexed and centrifuged. […] Supernatant was dried under a gentle stream of nitrogen at 45° C. and the residue reconstituted with 75 μL of acetonitrile and vortexed. 25 μL of derivatizing agent N-tert-Butyldimethysilyl-N-methyltrifluoro-acetamide (MTBSTFA) was added to microcentrifuge tubes, vortexed, and heated at ˜60 OC for 40 min. At the end of 40 min, the derivatized samples ˜75 μL were transferred to a 250 μL polypropylene vials and were analyzed via LC/MS/MS. Chromatographic analysis was performed using an Accela™ ultra high-performance system consisting of an analytical pump, and an autosampler coupled with TSQ Vantage mass spectrometer (Thermo Fisher Scientific Inc., Waltham Mass.). […] The total run time for each analyte was 5.0 min. Chromatographic analysis will be performed on Accela UPLC.

Data set [2] can be described thus: In vivo pharmacokinetics in mice, peroral, bioanalysis method 1 (total prodrug exposure). The conditions noted are these: mice, oral dosing. Put shortly: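 Mice dosed orally; plasma sampled by cardiac puncture 0–4 h (n=3 per time) or at 30 min only. Total prodrug measured after methanol extraction and n-butanol/3N HCl derivatization by UPLC-MS/MS. Non-compartmental PK: observed Cmax/Tmax, AUC by log-linear trapezoidal rule, t1/2=0.693/ke.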

Data set [3] can be described thus: Metabolic stability in mouse plasma. Format: in vitro ADME. The conditions noted are these: 10 μM, 37° C. The method, boiled down:
(§1)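 Prodrugs at 10 μM were incubated in plasma or liver microsomes at 37° C, with triplicate samples taken at 0, 30 and 60 min and quenched in cold acetonitrile. Loss of prodrug was followed by LC/MS/MS in positive electrospray mode. Percent remaining came from the analyte-to-internal-standard peak-area ratio.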

The nature of data set [4]: Metabolic stability in mouse liver microsomes. Format: in vitro ADME. The conditions noted are these: 10 μM, 37° C. The method, boiled down:
as §1
For orientation: Microsomes from liver hold many membrane-bound enzymes, among them those of drug oxidation.

Data set [5] can be described thus: Chemical stability in HBSS buffer (pH 7.4) / simulated gastric fluid. The conditions noted are these: chemical hydrolysis / HBSS buffer. Format: physicochemical. The method, boiled down: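 Prodrugs at 10 μM were incubated at 37° C for 1 h in simulated gastric fluid (pH 1.2) or HBSS (pH 7.4), sampled at 0, 30 and 60 min. Remaining prodrug was quantified by LC/MS/MS (positive ESI) as analyte/internal standard peak-area ratio, expressed as percentage remaining.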

Each structure is given as a SMILES string.

With `CC(C)OC(=O)OCOC(=O)C(CCC(=O)O)CP(=O)(OCOC(=O)OC(C)C)OCOC(=O)OC(C)C` (stereo not drawn) [Compound 10], the “oral bioavailability” value in data set [1] is given as “excellent oral bioavailability”. Besides, the “permeability in vivo” value in data set [2] was “highest permeability”. In addition, the Percentage remaining in data set [3] (0 min) worked out at 100%; in data set [3] (30 min) it was 1%; in data set [3] (60 min) it was 0%; in data set [4] (0 min), 100%; in data set [4] (30 min), 1%; in data set [4] (60 min), 0%. Besides, in data set [5], the “chemical stability” value is reported as “sufficient chemical stability”.
